One data set deals with GP2D cells. The data set is described as follows: GP2D proliferation assay (120 h) (colorectal cancer, G12D). It counts as cell-based. Put shortly:
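500 cells/well in DMEM + GlutaMAX + 10% FCS, exposed to a logarithmic compound dose series (DMSO-normalized) for 120 h. Viability read by CellTiter-Glo luminescence as percent of DMSO control, with an untreated T0 read at dosing; IC50 from four-parameter non-linear regression.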

The next data set addresses CYP3A4 (Homo sapiens (Human), UniProt P08684). The data set is described as follows: Mechanism based inhibition of CYP3A4 assay (MBI 3A4). The data set is classed as in vitro ADME. Particulars: hydroxy-midazolam formation after 30 min vs 0 min preincubation, 25 uM, human liver microsomes. The procedure, abridged: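 Readout is hydroxy-midazolam formed after 30 min preincubation relative to 0 min, measured by LC/MS-MS after acetonitrile quench. Following preincubation, samples diluted 1:10 and incubated 15 min with midazolam substrate.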

Another data set has as its system MKN1 cells. In words: MKN1 CTG proliferation assay (120 h) (gastric cancer, wt amplified). The data set is classed as cell-based. The procedure, abridged: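 MKN1 gastric cancer cells (200–500 per well, RPMI + 10% FCS) given a logarithmic compound dose series and incubated 120 h. Viability by CellTiter-Glo luminescence as percent of DMSO controls. IC50 by four-parameter non-linear regression.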

Where [1] appears, read: Homo sapiens, MKN-1, assay 3, CTG 120 h, read-out: MKN1 (assay 3) IC50.
The mark [2] stands for this setting: Homo sapiens, MKN-1, assay 2, CTG 120 h, read-out: MKN1 (assay 2) IC50.
Where [3] appears, read: Homo sapiens, MKN-1, assay 1, CTG 120 h, read-out: MKN1 (assay 1) IC50.

The structures appear in SMILES notation. Where two headings read alike, the source gives them in different places.

The values that follow come from US20240174690A1, “ANNULATED 2-AMINO-3-CYANO THIOPHENES AND DERIVATIVES FOR THE TREATMENT OF CANCER” (BOEHRINGER INGELHEIM INTERNATIONAL GMBH, priority 2021, published 2024).

CYP3A4, sequence (P08684 whole entry): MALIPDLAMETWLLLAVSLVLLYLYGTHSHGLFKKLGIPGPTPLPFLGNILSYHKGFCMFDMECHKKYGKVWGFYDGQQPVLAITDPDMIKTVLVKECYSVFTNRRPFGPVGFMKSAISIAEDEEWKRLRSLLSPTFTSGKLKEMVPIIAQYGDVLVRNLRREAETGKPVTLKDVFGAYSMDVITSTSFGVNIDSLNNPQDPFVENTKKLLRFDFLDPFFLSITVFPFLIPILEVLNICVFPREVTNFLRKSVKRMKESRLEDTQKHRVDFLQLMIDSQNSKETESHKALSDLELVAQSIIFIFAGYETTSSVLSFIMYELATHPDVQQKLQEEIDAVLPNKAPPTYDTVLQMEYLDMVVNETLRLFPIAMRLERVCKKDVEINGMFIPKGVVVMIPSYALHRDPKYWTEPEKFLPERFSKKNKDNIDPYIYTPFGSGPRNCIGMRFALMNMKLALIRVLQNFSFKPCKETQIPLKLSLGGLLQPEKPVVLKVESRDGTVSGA

For the molecule `C[C@H](Oc1cc(N2CC3CCC(C2)N3)nc(-c2noc3c2CCC[C@@]32CCCc3sc(N)c(C#N)c32)n1)[C@@H]1CCCN1C` [II-34], the IC50 (in general, the concentration needed to halve the response being measured) in the data set on GP2D cells was 0.049 µM; with MKN1 cells (setting [1]) it was 0.453 µM. Also, on CYP3A4, the “MBI 3A4” value stood at 83%.
Consider `C[C@H](Oc1cc(N2CCN(C)C3(CC3)C2)nc(-c2onc3c2CCC[C@@]32CCCc3sc(N)c(C#N)c32)n1)[C@@H]1C[C@@H](F)CN1C` [I-39], for which the IC50 was 0.017 µM in the data set on GP2D cells and 0.621 µM in the data set with MKN1 cells (setting [2]). Further, at CYP3A4, the “MBI 3A4” value is reported as 37%.
Regarding `CNC(=O)c1ccn(-c2cc(O[C@@H](C)[C@@H]3CCCN3C)nc(-c3noc4c3CCC[C@@]43CCCc4sc(N)c(C#N)c43)n2)n1` [II-20], the IC50 came to 0.057 µM with GP2D cells and 0.024 µM in the data set on MKN1 cells (setting [3]). In addition, the “MBI 3A4” value at CYP3A4 was 63%.
As for `C[C@H](Oc1cc([C@@H]2CCOC2)nc(-c2onc3c2CCC[C@@]32CCCc3sc(N)c(C#N)c32)n1)[C@@H]1CCCN1C` [I-22], the results for the IC50 with GP2D cells and in the data set on MKN1 cells (setting [1]) were 0.027 µM and 0.068 µM, respectively.
`C[C@H](Oc1cc(-n2ccc(C(=O)N3CCCC3)n2)nc(-c2noc3c2CCC[C@@]32CCCc3sc(N)c(C#N)c32)n1)[C@@H]1CCCN1C` [II-19]: the IC50 with GP2D cells was determined as 0.136 µM; with MKN1 cells (setting [1]), 0.047 µM.
As to `C[C@H](Oc1cc(N2CC[C@H](N3CCCCC3)C2)nc(-c2noc3c2CCC[C@@]32CCCc3sc(N)c(C#N)c32)n1)[C@@H]1CCCN1C` [II-12], the IC50 was 0.009 µM with GP2D cells and 0.46 µM in the data set on MKN1 cells (setting [1]). Moreover, the “MBI 3A4” value on CYP3A4 came to 78%.
On to `C[C@H](Oc1cc(-c2ccn(C3COC3)n2)nc(-c2onc3c2CCC[C@@]32CCCc3sc(N)c(C#N)c32)n1)[C@@H]1CCCN1C` [I-34], for which the IC50 was 0.872 µM with GP2D cells and 0.693 µM with MKN1 cells (setting [1]). For the same molecule, on CYP3A4, the “MBI 3A4” value is given as 67%.
As to `CO[C@@H]1C[C@@H]([C@H](C)Oc2cc(N3CCN(C)C4(CC4)C3)nc(-c3onc4c3CCC[C@@]43CCCc4sc(N)c(C#N)c43)n2)N(C)C1` [I-50], the IC50 is 0.01 µM with GP2D cells, 0.785 µM in the data set with MKN1 cells (setting [2]) and 0.627 µM in the data set with MKN1 cells (setting [1]).
For the molecule `C[C@H](Oc1cc(-c2ccn(C)n2)nc(-c2noc3c2CCC[C@@]32CCCc3sc(N)c(C#N)c32)n1)[C@@H]1C[C@@H](F)CN1C` [II-27], the IC50 with GP2D cells worked out at 0.408 µM; in the data set with MKN1 cells (setting [1]), 0.116 µM. Besides, the “MBI 3A4” value on CYP3A4 is 71%.
As to `C[C@H](Oc1cc(N2CCNC3(COC3)C2)nc(-c2noc3c2CCC[C@@]32CCCc3sc(N)c(C#N)c32)n1)[C@@H]1CCCN1C` [II-31], the IC50 was found to be 0.001 µM in the data set with GP2D cells and 0.03 µM in the data set with MKN1 cells (setting [1]). At CYP3A4, the “MBI 3A4” value came out at 65%.
For the molecule `C[C@H](Oc1cc(N2CCNC3(CC3)C2)nc(-c2onc3c2CCC[C@@]32CCCc3sc(N)c(C#N)c32)n1)[C@@H]1C[C@@H](F)CN1C` [I-45], the half-maximal inhibitory concentration (IC50) worked out at 0.002 µM in the data set on GP2D cells and 0.51 µM in the data set with MKN1 cells (setting [2]).
As to `C[C@H](Oc1cc(N2CCNC3(COC3)C2)nc(-c2onc3c2CCC[C@@]32CCCc3sc(N)c(C#N)c32)n1)[C@@H]1CCCN1C` [I-4], the IC50 in the data set on GP2D cells turned out to be 0.001 µM; with MKN1 cells (setting [1]) it was 0.075 µM. The “MBI 3A4” value at CYP3A4 was found to be 64%.
For the molecule `C[C@H](Oc1cc(N2C[C@@H](N(C)C)[C@@H](O)C2)nc(-c2noc3c2CCC[C@@]32CCCc3sc(N)c(C#N)c32)n1)[C@@H]1CCCN1C` [II-10], the results for the IC50 with GP2D cells and with MKN1 cells (setting [1]) were 0.011 µM and 1.27 µM, respectively. The “MBI 3A4” value at CYP3A4 was 80%.
For the molecule `C[C@H](Oc1cc(-c2ccn(C)n2)nc(-c2onc3c2CCC[C@@]32CCCc3sc(N)c(C#N)c32)n1)[C@@H]1CCCN1C` [I-21], the IC50 was 0.546 µM in the data set on GP2D cells and 0.149 µM in the data set with MKN1 cells (assay 3, CTG 120 h, read-out: MKN1 (assay 3) IC50). Also, on CYP3A4, the “MBI 3A4” value stood at 40%.
Turning to `C[C@H](Oc1cc(-n2ccc(C(N)=O)n2)nc(-c2noc3c2CCC[C@@]32CCCc3sc(N)c(C#N)c32)n1)[C@@H]1CCCN1C` [II-21], the IC50 turned out to be 0.057 µM in the data set with GP2D cells, 0.02 µM in the data set with MKN1 cells (setting [3]), 0.027 µM in the data set on MKN1 cells (setting [2]) and 0.024 µM in the data set on MKN1 cells (setting [1]). The “MBI 3A4” value at CYP3A4 came out at 77%.
For the molecule `CO[C@H]1CCN(C)[C@@H]1[C@H](C)Oc1cc(N2CCNC3(CC3)C2)nc(-c2onc3c2CCC[C@@]32CCCc3sc(N)c(C#N)c32)n1` [I-49], the IC50 turned out to be 0.001 µM in the data set with GP2D cells, 0.335 µM with MKN1 cells (setting [2]) and 0.152 µM in the data set with MKN1 cells (setting [1]).
For the molecule `C[C@H](Oc1cc(N2CCN(C)C3(COC3)C2)nc(-c2onc3c2CCC[C@@]32CCCc3sc(N)c(C#N)c32)n1)[C@@H]1C[C@@H](F)CN1C` [I-37], half-maximal inhibition in the data set with GP2D cells (IC50) required 0.024 µM. For the same molecule, the “MBI 3A4” value on CYP3A4 was determined as 45%.
In the data set with GP2D cells, `C[C@H](Oc1cc(N2CC[C@H](N3CCCC3)C2)nc(-c2noc3c2CCC[C@@]32CCCc3sc(N)c(C#N)c32)n1)[C@@H]1CCCN1C` [II-14] registered an IC50 of 0.006 µM. Moreover, the “MBI 3A4” value on CYP3A4 came to 83%.
Regarding `C[C@H](Oc1cc(N2C[C@H](C)NC3(CC3)C2)nc(-c2noc3c2CCC[C@@]32CCCc3sc(N)c(C#N)c32)n1)[C@@H]1C[C@@H](F)CN1C` [II-18], the IC50 in the data set on GP2D cells came out at 0.002 µM; in the data set on MKN1 cells (setting [2]), 0.279 µM.
